From patent publication US20220055989A1, “CONDENSED PYRROLES AS NOVEL BROMODOMAIN INHIBITORS” (ALBERT LUDWING UNIVERSITÄT FREIBURG, priority 2018, published 2022)

Assays:
GCN5L2 = target: T1, GCN5L2 (Homo sapiens, UniProt Q92830); test: Bromodomain assay % Ctrl determination GCN5L2; conditions: lower numbers indicate a stronger binding
T1 construct: T7 phage strains displaying bromodomains were grown in parallel; host or cells: T7 phage grown in E. coli host derived from BL21
Procedure: (§1) Compounds that bind the bromodomain prevent its binding to the immobilized ligand thus reducing the amount of protein captured. […] Hits are identified by measuring the amount of bromodomain captured in test versus control samples. Bromodomain assays for % Ctrl determination: T7 phage strains displaying bromodomains were grown in parallel in 24-well blocks in an E. coli host derived from the BL21 strain. E. coli were grown to log-phase and infected with T7 phage from a frozen stock (multiplicity of infection=0.4) and incubated with shaking at 32° C. until lysis (90-150 minutes). The lysates were centrifuged (5,000×g) and filtered (0.2 μm) to remove cell debris. […] The liganded beads were blocked with excess biotin and washed with blocking buffer (SeaBlock (Pierce), 1% BSA, 0.05% Tween 20, 1 mM DTT) to remove unbound ligand and to reduce non-specific phage binding. […] Test compounds were prepared as 1000× stocks in 100% DMSO and subsequently diluted 1:25 in monoethylene glycol (MEG). The compounds were then diluted directly into the assays such that the final concentrations of DMSO and MEG were 0.1% and 2.4%, respectively. All reactions were performed in polypropylene 384-well plates in a final volume of 0.02 ml. […] The bromodomain concentration in the eluates was measured by qPCR. […]

BRD9 = target: T2, BRD9 (Homo sapiens, UniProt Q9H8M2); test: Bromodomain assay % Ctrl determination BRD9; conditions: lower numbers indicate a stronger binding
T2 construct: T7 phage strains displaying bromodomains were grown; host or cells: T7 phage in E. coli derived from BL21
T2 sequence (Q9H8M2 136-240 limits assumed): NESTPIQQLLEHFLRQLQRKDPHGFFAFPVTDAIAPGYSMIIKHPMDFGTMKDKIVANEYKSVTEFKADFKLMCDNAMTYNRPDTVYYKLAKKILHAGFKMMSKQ
Procedure: as §1

BRD4(2) = target: T3, BRD4(2) (Homo sapiens, UniProt O60885); test: Bromodomain assay % Ctrl determination BRD4(2); conditions: lower numbers indicate a stronger binding
T3 construct: T7 phage strains displaying bromodomains were grown; host or cells: T7 phage in E. coli derived from BL21
Procedure: as §1

SMARCA2 = target: T4, SMARCA2 (Homo sapiens, UniProt P51531); test: Bromodomain assay % Ctrl determination SMARCA2; conditions: lower numbers indicate a stronger binding
T4 construct: T7 phage strains displaying bromodomains were grown in parallel; host or cells: T7 phage grown in E. coli host derived from BL21
T4 sequence (P51531 1378-1506 limits assumed): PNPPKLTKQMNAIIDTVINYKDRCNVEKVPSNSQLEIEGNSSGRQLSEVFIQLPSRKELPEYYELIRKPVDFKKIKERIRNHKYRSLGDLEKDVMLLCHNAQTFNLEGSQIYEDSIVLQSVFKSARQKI
Procedure: as §1

TRIM33(PHD, Bromo) = test: Bromodomain assay % Ctrl determination TRIM33(PHD, Bromo); conditions: lower numbers indicate a stronger binding
Procedure: as §1

TAF1(2) = target: T5, TAF1(2) (Homo sapiens, UniProt P21675); test: Bromodomain assay % Ctrl determination TAF1(2); conditions: lower numbers indicate a stronger binding
T5 construct: FALZ, PBRM1-BD2, BPRM1-BDS, TAF1-BD2, TAF1L-BD2; host or cells: T7 phage grown in E. coli host derived from BL21
T5 sequence (P21675 1519-1628 limits assumed): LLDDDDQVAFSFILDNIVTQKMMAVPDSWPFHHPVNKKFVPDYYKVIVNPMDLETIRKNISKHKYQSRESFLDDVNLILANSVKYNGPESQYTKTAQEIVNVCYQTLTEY
Procedure: as §1

WDR9(2) = target: T6, WDR9(2) (Homo sapiens, UniProt Q9NSI6); test: Bromodomain assay % Ctrl determination WDR9(2); conditions: lower numbers indicate a stronger binding
T6 construct: T7 phage strains displaying bromodomains were grown in parallel; host or cells: T7 phage grown in E. coli host derived from BL21
T6 sequence (Q9NSI6 1313-1418 limits assumed): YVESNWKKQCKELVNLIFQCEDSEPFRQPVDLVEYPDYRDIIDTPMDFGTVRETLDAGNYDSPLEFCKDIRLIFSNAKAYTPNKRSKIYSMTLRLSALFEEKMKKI
Procedure: as §1

BRD3(1) = target: T7, BRD3(1) (Homo sapiens, UniProt Q15059); test: Bromodomain assay % Ctrl determination BRD3(1); conditions: lower numbers indicate a stronger binding
T7 construct: T7 phage strains displaying bromodomains were grown in parallel; made in house; host or cells: T7 phage grown in an E. coli host derived from the BL21 strain
T7 sequence (Q15059 34-140 limits assumed): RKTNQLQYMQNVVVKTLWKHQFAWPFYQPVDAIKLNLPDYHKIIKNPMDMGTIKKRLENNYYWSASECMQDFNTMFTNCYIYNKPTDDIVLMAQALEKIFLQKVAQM
Procedure: as §1

HL-60 cells = test: GI50 in a culture of HL-60 cells; format: cell-based; conditions: concentration required to reduce the population of a culture of HL-60 cells by 50%
PBRM1(2) = target: T8, PBRM1(2) (Homo sapiens, UniProt Q86U86); test: BROMOscan Kd determination PBRM1(2); format: binding
T8 construct: FALZ, PBRM1-BD2, BPRM1-BDS, TAF1-BD2, TAF1L-BD2; host or cells: T7 phage grown in E. coli host derived from BL21
T8 sequence (Q86U86 177-287 limits assumed): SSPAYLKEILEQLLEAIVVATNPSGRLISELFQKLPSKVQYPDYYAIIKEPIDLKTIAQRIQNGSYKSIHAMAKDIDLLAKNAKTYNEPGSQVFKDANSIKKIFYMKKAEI
Procedure: (§2) Bromodomain profiling was carried out on the basis of BROMOscan™. This platform accounted for the indirect determination of the dissociation constants between 19 bromodomains and the compound of formula (13), by binding competition against a reference immobilized ligand. Compounds that bind the bromodomain prevent its binding to the immobilized ligand thus reducing the amount of protein captured. […] Hits are identified by measuring the amount of bromodomain captured in test versus control samples. Bromodomain assays for Kd determination: T7 phage strains displaying bromodomains were grown in parallel in 24-well blocks in an E. coli host derived from the BL21 strain. E. coli were grown to log-phase and infected with T7 phage from a frozen stock (multiplicity of infection=0.4) and incubated with shaking at 32° C. until lysis (90-150 minutes). The lysates were centrifuged (5,000×g) and filtered (0.2 μm) to remove cell debris. […] Kds were determined using an 11-point 3-fold compound dilution series with one DMSO control point. […] The bromodomain concentration in the eluates was measured by qPCR. […] Most Kds were determined using a compound top concentration=10,000 nM. […] Binding Constants (Kds): Binding constants (Kds) were calculated with a standard dose-response curve using the Hill equation: The Hill Slope was set to −1. […]

BRPF3 = target: T9, BRPF3 (Homo sapiens, UniProt Q9ULD4); test: BROMOscan Kd determination BRPF3; format: binding
T9 construct: T7 phage strains displaying bromodomains were grown; host or cells: T7 phage in E. coli derived from BL21
T9 sequence (Q9ULD4 589-693 limits assumed): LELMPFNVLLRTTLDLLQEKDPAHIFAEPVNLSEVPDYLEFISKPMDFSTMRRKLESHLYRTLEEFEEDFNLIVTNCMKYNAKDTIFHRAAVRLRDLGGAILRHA
Procedure: as §2

ATAD2A = target: T10, ATAD2A (Homo sapiens, UniProt Q6PL18); test: BROMOscan Kd determination ATAD2A; format: binding
T10 construct: T7 phage strains displaying bromodomains were grown in parallel; made in house; host or cells: T7 phage grown in an E. coli host derived from the BL21 strain
T10 sequence (Q6PL18 980-1092 limits assumed): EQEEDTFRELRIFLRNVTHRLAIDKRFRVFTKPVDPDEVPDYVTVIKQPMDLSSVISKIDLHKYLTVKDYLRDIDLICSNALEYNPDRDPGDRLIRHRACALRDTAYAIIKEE
Procedure: as §2

FALZ = target: T11, FALZ (Homo sapiens, UniProt Q12830); test: BROMOscan Kd determination FALZ; format: binding
T11 construct: T7 phage strains displaying bromodomains were grown in parallel; host or cells: T7 phage grown in E. coli host derived from BL21
Procedure: as §2

BAZ2B = target: T12, BAZ2B (Homo sapiens, UniProt Q9UIF8); test: BROMOscan Kd determination BAZ2B; format: binding
T12 construct: T7 phage strains displaying bromodomains were grown in parallel; made in house; host or cells: T7 phage grown in an E. coli host derived from the BL21 strain
T12 sequence (Q9UIF8 2060-2164 limits assumed): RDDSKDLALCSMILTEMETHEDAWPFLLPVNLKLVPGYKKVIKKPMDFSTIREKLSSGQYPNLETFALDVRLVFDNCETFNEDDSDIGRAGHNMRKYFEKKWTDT
Procedure: as §2

SMARCA4 = target: T13, SMARCA4 (Homo sapiens, UniProt P51532); test: BROMOscan Kd determination SMARCA4; format: binding
T13 construct: T7 phage strains displaying bromodomains were grown in parallel; host or cells: T7 phage grown in E. coli host derived from BL21
T13 sequence (P51532 1453-1564 limits assumed): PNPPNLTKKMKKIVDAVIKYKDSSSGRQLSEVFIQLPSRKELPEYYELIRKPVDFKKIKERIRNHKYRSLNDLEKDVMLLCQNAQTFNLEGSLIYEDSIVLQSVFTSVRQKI
Procedure: as §2

BRD4(1, 2) = target: T14, BRD4(1, 2) (Homo sapiens, UniProt O60885); test: BROMOscan Kd determination BRD4(1, 2); format: binding
T14 construct: T7 phage strains displaying bromodomains were grown in parallel; made in house; host or cells: T7 phage grown in an E. coli host derived from the BL21 strain
Procedure: as §2

PCAF = target: T15, PCAF (Homo sapiens, UniProt Q92831); test: BROMOscan Kd determination PCAF; format: binding
T15 construct: T7 phage strains displaying bromodomains were grown in parallel; host or cells: T7 phage grown in E. coli host derived from BL21
T15 sequence (Q92831 723-827 limits assumed): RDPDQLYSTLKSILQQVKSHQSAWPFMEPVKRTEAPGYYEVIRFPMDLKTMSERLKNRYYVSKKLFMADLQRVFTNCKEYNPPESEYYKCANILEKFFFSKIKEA
Procedure: as §2

T1 sequence (Q92830 728-832 limits assumed): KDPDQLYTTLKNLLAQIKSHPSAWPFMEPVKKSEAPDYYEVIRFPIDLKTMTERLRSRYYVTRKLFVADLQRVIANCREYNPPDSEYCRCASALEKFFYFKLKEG

Compound | % Ctrl @ 10 000 nM GCN5L2 (GCN5L2) [% Ctrl] | % Ctrl @ 10 000 nM BRD9 (BRD9) [% Ctrl] | % Ctrl @ 10 000 nM BRD4(2) (BRD4(2)) [% Ctrl] | % Ctrl @ 10 000 nM SMARCA2 (SMARCA2) [% Ctrl] | % Ctrl @ 10 000 nM TRIM33(PHD, Bromo) (TRIM33(PHD, Bromo)) [% Ctrl] | % Ctrl @ 10 000 nM TAF1(2) (TAF1(2)) [% Ctrl] | % Ctrl @ 10 000 nM WDR9(2) (WDR9(2)) [% Ctrl] | % Ctrl @ 10 000 nM BRD3(1) (BRD3(1)) [% Ctrl] | GI50HL60 (HL-60 cells) [µM] | Kd (PBRM1(2)) [µM] | Kd (BRPF3) [µM] | Kd (ATAD2A) [µM] | Kd (FALZ) [µM] | Kd (BAZ2B) [µM] | Kd (SMARCA4) [µM] | Kd (BRD4(1, 2)) [µM] | Kd (PCAF) [µM]
COc1ccc(S(=O)(=O)N2CCOCC2)cc1NC(=O)c1[nH]c(C)c2c1CCCCC2=O [Compound 13, N-(2-methoxy-5-(morpholinosulfonyl)phenyl)-3-methyl-4-oxo-2,4,5,6,7,8-hexahydrocyclohepta[c]pyrrole-1-carboxamide] | 44 | 0 | 0 | 83 | 60 | 7.4 | 81 | 0.05 | 0.17 |  |  |  |  |  |  |  | 
Cc1[nH]c(-c2cc(N)ccc2Cl)c2c1C(=O)CCCC2 [Compound 23] |  |  |  |  |  |  |  |  |  | 4.2 | 6 | > 10 | 2.6 | 1.8 | > 10 | 0.16 | > 10
